Results taken from paper PMC5920688 (Journal of veterinary pharmacology and therapeutics, 2017).
Entries after “also recorded” stand apart in the source; their conditions may differ. Blank lines part the entries; values can stand above or below the compound they belong to.

Experiments:
[1] = system: horses with lipopolysaccharide-induced radiocarpal synovitis; type: in vivo
[2] = Synovial fluid t-TUCB concentrations after intravenous administration; type: in vivo; conditions: horses, i.v., 1 mg/kg
[3] = system: rats; conditions: doses as low as 0.1 mg/kg, ref Wagner et al., 2013; cited from earlier work
[4] = system: horses with lipopolysaccharide-induced radiocarpal synovitis; assay: Pain; type: in vivo; conditions: for Horses qualifying for rescue analgesia if only VAS > 50 at rest had been used: control 5/6; for Proportion of positive-to-negative responses to touch (tactile allodynia): control 1.7; for AUC of AAEP lameness scores compared to control / AUC of visual analog pain scores compared to control: first 12 h and entire 48 h
[5] = system: equine soluble epoxide hydrolase (sEH); conditions: ref Guedes et al., 2016, cited from earlier work
[6] = system: horses; assay: Physical exam variables, hematology and serum biochemistry; type: in vivo
[7] = Plasma pharmacokinetics of t-TUCB after intravenous administration; type: in vivo, horses; conditions: for AUClast (h*ng/mL)/dose: dose-corrected; for AUClast (h*ng/mL)/dose / Clast (last measured plasma concentration) / Tlast (time of last measured plasma concentration) / λz lower / λz upper: mean ± SEM; for Plasma kinetics (order): preliminary
[8] = system: horses; conditions: 4 mg/kg i.v., ref Toutain et al., 1994; cited from earlier work
[9] = system: horses; conditions: clinical cases, ref Johnson et al., 1993, Raekallio et al., 1997; cited from earlier work
[10] = Thoroughbred, Quarter Horse, Dutch Warmblood (mixed group), plasma, iv, 1 mg/kg
[11] = Thoroughbred, Quarter Horse, Dutch Warmblood, plasma, iv, 0.1 mg/kg
[12] = Thoroughbred, Quarter Horse, Dutch Warmblood, plasma, iv, 0.3 mg/kg
[13] = horses, i.v., 0.1 mg/kg, plasma
[14] = horses, i.v., 0.3 mg/kg, plasma

Synovial fluid concentrations reached [2]: high concentrations | Synovial fluid t-TUCB concentration, inflamed compared to non-inflamed joint [2]: significantly higher | Vd [7, 10]: 0.571 ± 0.104 L/kg | clearance [7, 10]: 0.233 mL/min/kg | half-life [7, 10]: 24 ± 5 h | AUC(0-inf) [7, 11]: 2000 ± 530 ng·h/mL | AUC(0-t) [7, 11]: 1610 ± 360 ng·h/mL | AUC(0-inf) [7, 12]: 6370 ± 526 ng·h/mL | AUC(0-t) [7, 12]: 5840 ± 488 ng·h/mL | AUC(0-t) ([7]; Thoroughbred, Quarter Horse, Dutch Warmblood, plasma, iv, 1 mg/kg): 50100 ± 5600 ng·h/mL | AUClast (h*ng/mL)/dose ([7]; horses, i.v., 0.1 mg/kg): 16066±3595^a h*ng/mL | AUClast (h*ng/mL)/dose ([7]; horses, i.v., 0.3 mg/kg): 19467±1625^a h*ng/mL | AUClast (h*ng/mL)/dose ([7]; horses, i.v., 1 mg/kg): 50139±5604^b h*ng/mL | Plasma concentrations ([7]; horses, i.v., 0.03 mg/kg): undetectable or very low | Clast (last measured plasma concentration) [7, 13]: 17 ± 5 ng/mL | Tlast (time of last measured plasma concentration) [7, 13]: 38 ± 5 h | λz lower [7, 13]: 8 ± 4 h | λz upper [7, 13]: 38 ± 5 h | Clast (last measured plasma concentration) [7, 14]: 29 ± 3 ng/mL | Tlast (time of last measured plasma concentration) [7, 14]: 48 ± 0 h | λz lower [7, 14]: 11 ± 5 h | λz upper [7, 14]: 48 ± 0 h | Clast (last measured plasma concentration) ([7]; horses, i.v., 1 mg/kg, plasma): 538 ± 76 ng/mL | Tlast (time of last measured plasma concentration) ([7]; horses, i.v., 1 mg/kg, plasma): 48 ± 0 h | λz lower ([7]; horses, i.v., 1 mg/kg, plasma): 14 ± 5 h | λz upper ([7]; horses, i.v., 1 mg/kg, plasma): 48 ± 0 h | Plasma kinetics (order) ([7]; horses, i.v., 0.1 and 0.3 mg/kg): linear or first order plasma kinetics | clearance ([7]; plasma, iv, 0.1 mg/kg): 1.13 mL/min/kg | clearance ([7]; plasma, iv, 0.3 mg/kg): 0.8 mL/min/kg | AUC(0-inf) ([7]; plasma, iv, 1 mg/kg): 71100 ± 5780 ng·h/mL | clearance ([7]; plasma, iv, 1 mg/kg): 0.233 mL/min/kg | half-life ([7]; plasma, iv, 1 mg/kg): 24 ± 5 h
Structure (SMILES): O=C(Nc1ccc(OC(F)(F)F)cc1)N[C@H]1CC[C@H](Oc2ccc(C(=O)O)cc2)CC1 [t-TUCB, trans-4-{4-[3-(4-Trifluoromethoxy-phenyl)-ureido]-cyclohexyloxy}-benzoic acid]
Carpus circumference compared to control ([1]; 1 mg/kg i.v., at 36 h): reaching statistical significance | Anti-inflammatory activity (inflammatory cell numbers, joint effusion, protein concentration) ([1]; 0.1-1 mg/kg i.v.): no important anti-inflammatory effects; also recorded: negligible anti-inflammatory activity | Carpus circumference compared to the remaining treatments ([1]; 0.3 and 1 mg/kg i.v.): increased slightly less | Mechanical hyperalgesia to intra-plantar LPS [3]: significantly attenuated | Horses qualifying for rescue analgesia if only VAS > 50 at rest had been used ([4]; 0.03 mg/kg i.v.): 5/6 | Proportion of positive-to-negative responses to touch (tactile allodynia) ([4]; 0.1 mg/kg i.v.): 0.8 | Horses qualifying for rescue analgesia if only VAS > 50 at rest had been used ([4]; 0.1 mg/kg i.v.): 4/6 | Proportion of positive-to-negative responses to touch (tactile allodynia) ([4]; 0.3 mg/kg i.v.): 1.3 | Horses qualifying for rescue analgesia if only VAS > 50 at rest had been used ([4]; 0.3 mg/kg i.v.): 1/4 | Proportion of positive-to-negative responses to touch (tactile allodynia) ([4]; 1 mg/kg i.v.): 0.2 | Horses qualifying for rescue analgesia if only VAS > 50 at rest had been used ([4]; 1 mg/kg i.v.): 2/5 | AUC of AAEP lameness scores compared to control ([4]; 1 mg/kg i.v.): significantly lower | AUC of visual analog pain scores compared to control ([4]; 1 mg/kg i.v.): significantly lower | AUC of AAEP lameness scores compared to control ([4]; 0.1 and 0.3 mg/kg i.v.): not the others | AUC of visual analog pain scores compared to control ([4]; 0.1 and 0.3 mg/kg i.v.): not the others | In vitro 95% inhibitory concentration (IC95) ([5]; equine sEH): 0.0964 µg/mL | Potency against equine sEH compared to rat sEH ([5]; in vitro, Wagner et al., 2013): approximately 3 fold | Adverse effects on physical and laboratory examinations ([6]; 0.03-1 mg/kg i.v.): No adverse effects were observed | Effect of treatment on respiratory rate, heart rate and mean arterial pressure ([6]; 0.1, 0.3 and 1 mg/kg i.v., after LPS): not of treatment | Hematology and serum biochemistry results ([6]; all treatments (0.03-1 mg/kg i.v.)): within the normal laboratory reference range | Plasma kinetics (order) ([7]; horses, i.v., highest dose (1 mg/kg)): may have approached a non-linear or zero order kinetics

Structure (SMILES): CCCCC1C(=O)N(c2ccccc2)N(c2ccccc2)C1=O [phenylbutazone]
Analgesic effects in carpal Freund's adjuvant arthritis model [8]: not readily demonstrated; also recorded: could not be demonstrated | Duration of post-surgical analgesia [9]: < 12 h
